The source of these data is patent publication US9370503B1, “Compounds for treating ocular diseases” (priority 2015, dated 2016).

Data set [1] concerns ARPE-19 cells. The experiment in a line: t-BHP-induced injury in ARPE-19 cells (MTT). The note with it: 12 hours. In kind it is cell-based, human. As to the method: (§1) ARPE-19 cells were grown in DMEM/F12 medium supplemented with 10% FBS, 100 units/ml penicillin G, and 100 μg/ml streptomycin sulfate. HUVECs were grown in vascular cell basal medium supplemented with endothelial cell growth kit. Cells were incubated in a humidified incubator at 37° C. under 5% CO2 and 95% air.
(§2) MTT assay was used to measure the viability of ARPE-19 cells and HUVECs. 2×10^5 ARPE-19 cells or 5×10^4 HUVECs were seeded in 96-well plates (100 μl/well) and allowed to grow overnight. Negative control was prepared by adding 100 μl medium without cells. The cells were then treated with fresh medium with a compound of Formula (II) (“(II)”) (0.03, 0.1, 0.3, 1, 3 and 10 μg/ml) and/or oxidants (NaIO3, H2O2, t-BHP and NaN3) for 12, 24, or 72 hours (200 μl/well). The vehicle control group was treated with vehicle. 20 μl MTT (5 mg/ml) was added to wells, and incubated for another 4 h. After incubation, the medium was discarded and 100 μl DMSO was added to solubilize formazan produced from MTT by the viable cells. Absorbance was measured at 570 nm using a microplate reader (Bio-Rad Laboratories, Inc., CA). Cells viability was calculated according to the following formula: Viability of cells (%)=(absorbance in tested sample−absorbance in negative control)/(absorbance in vehicle control−absorbance in negative control)×100%.

In another data set the test system is HUVECs. Description: NaIO3-induced injury in HUVECs (MTT). In kind it is cell-based, human. The note with it: 3 and 10 μg/ml compound, 72 hours. The procedure: as §1, §2
Data set [2] relates to ARPE-19 cells. The experiment in a line: NaN3-induced injury in ARPE-19 cells (MTT). Type of data set: cell-based, human. The note with it: 0.03 μg/ml to 10 μg/ml compound, 72 hours. As to the method: as §1, §2
The subject of data set [3] is NaIO3 induced dry AMD rat model. Description: NaIO3 induced dry AMD rat model, c-wave of ERG. Type of data set: in vivo. The note with it: 1% eye drops 3 times a day, 35 mg/kg NaIO3, BN rats. The procedure:
A total of thirty 8-week-old male Brown-Norway (BN) rats were randomly divided into 3 groups, 10 rats in normal group, 10 rats in NaIO3 group and 10 rats in (II)+NaIO3 group. Control group was instilled with solvent (2-hydroxypropyl-β-cyclodextrin, Sigma-Aldrich) alone without NaIO3 injection. NaIO3 group was instilled with solvent plus 35 mg/kg NaIO3 injection through hypoglossal vein; whereas (II)+NaIO3 group was instilled with 1% (II) eye drops plus 35 mg/kg NaIO3 injection. Both eyes of all rats were instilled with 1 drop for 3 times a day for 1 week before and 4 weeks after NaIO3 injection. At the end of 2 and 4 weeks, RPE function was measured with c-wave of ERG.
BN rats were dark adapted for 2 hours, and then anesthetized with ketamine 35 mg/kg plus xylazine 5 mg/kg i.m, Half of the initial dose was given each 1 hour thereafter. Pupils of all rats were dilated with one drop each of 1% atropine, and 2.5% phenylephrine. Before recording, one drop of 0.5% tetracaine was given for surface anesthesia. All rats were kept warm during ERG measurement. DC-ERG recording methods developed by Peachey were followed. […] Data were analyzed by iWORX LabScribe Data Recording Software (iWorxOCB Sciences, Dover, N.H.). […]

The test system of data set [4] is ARPE-19 cells. The experiment in a line: Hypoxia-induced damage in ARPE-19 cells (MTT). In kind it is cell-based, human. The note with it: hypoxia 1% O2, 72 h. The procedure:
as §1
MTT assay was used to measure the viability of ARPE-19 cells and HUVECs. 2×10^5 ARPE-19 cells or 5×10^4 HUVECs were seeded in 96-well plates (100 μl/well) and allowed to grow overnight. Negative control was prepared by adding 100 μl medium without cells. The cells were then treated with fresh medium with a compound of Formula (II) (“(II)”) (0.03, 0.1, 0.3, 1, 3 and 10 μg/ml) and/or oxidants (NaIO3, H2O2, t-BHP and NaN3) for 12, 24, or 72 hours (200 μl/well). The vehicle control group was treated with vehicle. 20 μl MTT (5 mg/ml) was added to wells, and incubated for another 4 h. After incubation, the medium was discarded and 100 μl DMSO was added to solubilize formazan produced from MTT by the viable cells. Absorbance was measured at 570 nm using a microplate reader (Bio-Rad Laboratories, Inc., CA). Cells viability was calculated according to the following formula: Viability of cells (%)=(absorbance in tested sample−absorbance in negative control)/(absorbance in vehicle control−absorbance in negative control)×100%. […]

The subject of data set [5] is rat's retinal function after ischemic insult. Description: b-wave recovery of retinal function after ischemic insult (ERG). In kind it is in vivo. The note with it: 1% instilled topically. The procedure: The retinal ischemia experiment has been described previously (Chiou et al., J. Ocular Pharmacol. 9:179-185, 1993, and Chiou et al., J. Ocular Pharmacol. 10:493-498, 1994). Electroretinograms (ERG) were carried out to assess the retinal function prior to and after the ischemic insult. ERGs were recorded using Ag/AgCl electrodes placed in contact with the cornea. One stainless steel needle was inserted subcutaneously between the two eyes as a reference electrode, and another needle was inserted subcutaneously into the neck as a ground electrode. A photostimulator (Grass PS22 Flash) was used to produce flashes of light 5 inches from the eye, and the ERG potentials were recorded on a polygraph. The ERG system was purchased from LKC Technologies, Inc. (Gaithersburg, Md.). A single flash (10 msec) of white light stimuli was used to evoke ERG a- and b-waves. Peak b-wave amplitudes were measured from the trough of the a-wave to the peak of the b-wave.
Long-Evans rats (200-250 g), dark-adapted at least 2 hours, were anaesthetized intramuscularly with ketamine (35 mg/kg) plus xylazine (5 mg/kg). Half of the initial dose was administrated at one hour intervals to maintain adequate anesthesia. The pupils were dilated with 1% tropicamide (50 μl) for ERG experiments. Retinal ischemia was produced by occlusion of the central retina and posterior ciliary arteries using a ligature placed around the optic nerve and posterior ciliary artery. The ligature was drawn tightly through a micropipette tip placed at the base of the eyeball socket to occlude the retinal vessels for 30 min. After 30 min of retinal ischemia, the ligature was liberated and the retinal arteries allowed to reperfuse. ERGs were measured at 30, 60, 90, 120, 180 and 240 min thereafter. The compounds and vehicle were administered topically before occlusion of the central retinal arteries.

For the compound `CC(C)=CCC/C(C)=C/Cc1c([C@@H]2CC(=O)c3c(cc(O)c(CC=C(C)C)c3O)O2)ccc(O)c1O` [Formula (II)], in the data set with ARPE-19 cells [1], the “effect on t-BHP-induced injury in ARPE-19 cells” value was “significantly reversed”. The “effect on NaIO3-induced injury in HUVECs” value with HUVECs is “enhanced”. In addition, the “effect on NaN3-induced injury in ARPE-19 cells” value with ARPE-19 cells [2] is recorded as “significantly reversed”. In addition, in data set [3], the “c-wave of ERG in NaIO3-treated rats” value is “markedly reverse” and the “reversal of NaIO3 induced dry AMD model (c-wave of ERG)” value turned out to be 4 times. The “effect on viability of ARPE-19 cells in hypoxic condition” value with ARPE-19 cells [4] (0.03 μg/ml to 3 μg/ml) was “no effect”. Further, the “reversal of injury induced by hypoxia in ARPE-19 cells” value with ARPE-19 cells [4] (10 μg/ml) came out at 24%. For the same compound, the “potency in b-wave recovery” value in data set [5] is on record as “about the same as 1% (I)”. Also, the “duration of drug action on b-wave recovery” value in data set [5] (after drug application) amounted to 120 min.
